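Cultured in 96-well plates, cells were exposed to test compound for 48 hours across five concentrations. GI50 = concentration required for 50% inhibition of growth.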 The source made the active and inactive calls. No stated cut-off is given here; in the data, active = GI50 up to about 1.1 µM and inactive = higher. Where a SMILES comes first, the peptide text is derived from it. [ ]: non-standard residue; d: D form. Hiv = CC(C)[C@H](O)C(=O)O
Columns and labels:
Assay in all cases: DTP human tumour cell line panel, 48 h
UO-31 = test system: UO-31
NCI-H460 = test system: NCI-H460
OVCAR-8 = test system: OVCAR-8
MDA-MB-231 = test system: MDA-MB-231
COLO 205 = test system: COLO 205
K562 = test system: K562
UACC-62 = test system: UACC-62
SK-OV-3 = test system: SK-OV-3
M14 = test system: M14
MDA-N = test system: MDA-N
NCI-H23 = test system: NCI-H23
SNB-19 = test system: SNB-19
DU-145 = test system: DU-145
SF-268 = test system: SF-268
T47D = test system: T47D
IGROV-1 = test system: IGROV-1
SNB-75 = test system: SNB-75
A498 = test system: A498
LOX IMVI = test system: LOX IMVI
OVCAR-4 = test system: OVCAR-4

Row | Structure (SMILES) | GI50 (UO-31) | GI50 (NCI-H460) | GI50 (OVCAR-8) | GI50 (MDA-MB-231) | GI50 (COLO 205) | GI50 (K562) | GI50 (UACC-62) | GI50 (SK-OV-3) | GI50 (M14) | GI50 (MDA-N) | GI50 (NCI-H23) | GI50 (SNB-19) | GI50 (DU-145) | GI50 (SF-268) | GI50 (T47D) | GI50 (IGROV-1) | GI50 (SNB-75) | GI50 (A498) | GI50 (LOX IMVI) | GI50 (OVCAR-4)
1 | Cc1ncc([N+](=O)[O-])n1CCNC(=O)Cn1c([N+](=O)[O-])cnc1C | > 100 µM (inactive) | > 100 µM (inactive) | > 100 µM (inactive) | > 100 µM (inactive) | > 100 µM (inactive) | > 100 µM (inactive) | > 100 µM (inactive) | > 100 µM (inactive) | > 100 µM (inactive) | > 100 µM (inactive) | > 100 µM (inactive) | > 100 µM (inactive) | 92.5 µM (inactive) | > 100 µM (inactive) | > 100 µM (inactive) | > 100 µM (inactive) | 76.2 µM (inactive) | > 100 µM (inactive) | – | –
2 | CCN1CN(c2ccccc2)C2(CCN(CC3COc4ccccc4O3)CC2)C1=O (configuration not stated) | 29 µM (inactive) | 18.2 µM (inactive) | 34.7 µM (inactive) | 2.57 µM (inactive) | 15.7 µM (inactive) | 37.9 µM (inactive) | 23.3 µM (inactive) | 28.6 µM (inactive) | 2.21 µM (inactive) | 2.28 µM (inactive) | 40.6 µM (inactive) | 36.2 µM (inactive) | 36.6 µM (inactive) | 42.5 µM (inactive) | 24.3 µM (inactive) | 53.7 µM (inactive) | 30.2 µM (inactive) | 22.6 µM (inactive) | 17.9 µM (inactive) | –
3 | Clc1ncnc(Cl)c1Cl | > 100 µM (inactive) | > 100 µM (inactive) | > 100 µM (inactive) | > 100 µM (inactive) | > 100 µM (inactive) | > 100 µM (inactive) | > 100 µM (inactive) | > 100 µM (inactive) | > 100 µM (inactive) | > 100 µM (inactive) | > 100 µM (inactive) | > 100 µM (inactive) | > 100 µM (inactive) | > 100 µM (inactive) | > 100 µM (inactive) | > 100 µM (inactive) | > 100 µM (inactive) | – | > 100 µM (inactive) | > 100 µM (inactive)
4 | CCCC(=O)OC1CC(n2cc(F)c(=O)[nH]c2=O)OC1COP(=O)(OCC(Cl)(Cl)Cl)OCC(Cl)(Cl)Cl (configuration not stated) | 0.49 µM (active) | 0.0351 µM (active) | 0.925 µM (active) | 24.2 µM (inactive) | 0.0614 µM (active) | > 10 µM (inactive) | 2.06 µM (inactive) | 12.4 µM (inactive) | 2.06 µM (inactive) | 7.01 µM (inactive) | 11 µM (inactive) | 3.15 µM (inactive) | 0.938 µM (active) | 0.766 µM (active) | 20.7 µM (inactive) | 14.8 µM (inactive) | 8.04 µM (inactive) | – | 16.1 µM (inactive) | 16.9 µM (inactive)
5 | O=C1Nc2ccccc2/C1=N/Nc1nc(-c2ccc([N+](=O)[O-])cc2)cs1 | 11.4 µM (inactive) | 11 µM (inactive) | 16.8 µM (inactive) | 40.9 µM (inactive) | 44.2 µM (inactive) | – | – | 63.1 µM (inactive) | 15 µM (inactive) | 27 µM (inactive) | 27.7 µM (inactive) | 44.1 µM (inactive) | 26.5 µM (inactive) | – | 29.1 µM (inactive) | 18.7 µM (inactive) | 7.45 µM (inactive) | – | 35.6 µM (inactive) | 18.1 µM (inactive)
6 | S=c1[nH]n2c(CCCCCCCCc3nnc4sc(=S)[nH]n34)nnc2s1 | > 100 µM (inactive) | > 100 µM (inactive) | > 100 µM (inactive) | > 100 µM (inactive) | > 100 µM (inactive) | > 100 µM (inactive) | > 100 µM (inactive) | > 100 µM (inactive) | > 100 µM (inactive) | > 100 µM (inactive) | > 100 µM (inactive) | > 100 µM (inactive) | > 100 µM (inactive) | > 100 µM (inactive) | > 100 µM (inactive) | > 100 µM (inactive) | > 100 µM (inactive) | > 100 µM (inactive) | – | > 100 µM (inactive)
7 | COC(=O)C1=C(CCCCO[Si](C)(C)C(C)(C)C)NC(=O)N2[C@@H](CCOCc3ccccc3)CC[C@H]12 | 19.5 µM (inactive) | 25.9 µM (inactive) | – | 18.2 µM (inactive) | 18 µM (inactive) | 25.1 µM (inactive) | 24.3 µM (inactive) | 45.3 µM (inactive) | 25.8 µM (inactive) | 17.6 µM (inactive) | 7.98 µM (inactive) | 23.6 µM (inactive) | 12.8 µM (inactive) | 25.8 µM (inactive) | 15.8 µM (inactive) | – | 25.2 µM (inactive) | 53 µM (inactive) | – | 27.5 µM (inactive)
8 | C/C=C\C(CC(=O)NCCc1c[nH]c2ccccc12)CC(=O)OC (configuration not stated) | > 100 µM (inactive) | > 100 µM (inactive) | > 100 µM (inactive) | > 100 µM (inactive) | > 100 µM (inactive) | > 100 µM (inactive) | > 100 µM (inactive) | > 100 µM (inactive) | > 100 µM (inactive) | > 100 µM (inactive) | > 100 µM (inactive) | > 100 µM (inactive) | > 100 µM (inactive) | > 100 µM (inactive) | > 100 µM (inactive) | > 100 µM (inactive) | > 100 µM (inactive) | > 100 µM (inactive) | – | > 100 µM (inactive)
9 | Cc1ccc(Cc2n[nH]c(=O)n2-c2ccccc2)cc1 | 86.7 µM (inactive) | > 100 µM (inactive) | > 100 µM (inactive) | > 100 µM (inactive) | – | > 100 µM (inactive) | 55.3 µM (inactive) | – | – | > 100 µM (inactive) | > 100 µM (inactive) | > 100 µM (inactive) | > 100 µM (inactive) | > 100 µM (inactive) | 0.652 µM (active) | > 100 µM (inactive) | > 100 µM (inactive) | 37.5 µM (inactive) | – | –
10 | CCOC(=O)C(NC(=O)CC(C)C)(NC(C)C)C(F)(F)F (configuration not stated) | > 100 µM (inactive) | > 100 µM (inactive) | > 100 µM (inactive) | > 100 µM (inactive) | > 100 µM (inactive) | > 100 µM (inactive) | – | > 100 µM (inactive) | > 100 µM (inactive) | > 100 µM (inactive) | > 100 µM (inactive) | > 100 µM (inactive) | > 100 µM (inactive) | > 100 µM (inactive) | > 100 µM (inactive) | > 100 µM (inactive) | – | > 100 µM (inactive) | > 100 µM (inactive) | > 100 µM (inactive)
11 | CCN(CC)CCOc1ccccc1/C=C/c1noc2ccccc12 | 6.11 µM (inactive) | 11.6 µM (inactive) | 12.2 µM (inactive) | 11.4 µM (inactive) | 6.21 µM (inactive) | 9.29 µM (inactive) | 10.6 µM (inactive) | 20 µM (inactive) | 2.54 µM (inactive) | 11.8 µM (inactive) | 13.9 µM (inactive) | 13.6 µM (inactive) | 15.7 µM (inactive) | 17.2 µM (inactive) | 12.6 µM (inactive) | 9.91 µM (inactive) | 10.4 µM (inactive) | 17.2 µM (inactive) | – | 24.5 µM (inactive)
12 | O=C(CSc1nc2ccccc2s1)c1sc2sc3ccccc3[n+]2c1[O-] | > 100 µM (inactive) | > 100 µM (inactive) | > 100 µM (inactive) | 26.9 µM (inactive) | > 100 µM (inactive) | > 100 µM (inactive) | > 100 µM (inactive) | > 100 µM (inactive) | > 100 µM (inactive) | > 100 µM (inactive) | > 100 µM (inactive) | > 100 µM (inactive) | > 100 µM (inactive) | > 100 µM (inactive) | > 100 µM (inactive) | > 100 µM (inactive) | – | > 100 µM (inactive) | > 100 µM (inactive) | > 100 µM (inactive)
13 | COC(=O)[C@]1(c2cc3ccccc3[nH]2)CC2CNC1C1OC(C)(C)OC21 (some centres not stated) | > 100 µM (inactive) | > 100 µM (inactive) | > 100 µM (inactive) | 64.7 µM (inactive) | > 100 µM (inactive) | 73.6 µM (inactive) | > 100 µM (inactive) | > 100 µM (inactive) | > 100 µM (inactive) | 75.9 µM (inactive) | > 100 µM (inactive) | > 100 µM (inactive) | > 100 µM (inactive) | > 100 µM (inactive) | 52.4 µM (inactive) | > 100 µM (inactive) | > 100 µM (inactive) | – | > 100 µM (inactive) | > 100 µM (inactive)
14 | Clc1ccc(CCN2CCN(CCCc3ccccc3)CC2)cc1Cl | 12.2 µM (inactive) | 17.7 µM (inactive) | 16.3 µM (inactive) | 16.8 µM (inactive) | 15.4 µM (inactive) | 26.6 µM (inactive) | 16.8 µM (inactive) | 19.3 µM (inactive) | 14.4 µM (inactive) | 16.9 µM (inactive) | 16.9 µM (inactive) | 16.6 µM (inactive) | 16.4 µM (inactive) | 20.4 µM (inactive) | 17.2 µM (inactive) | 17 µM (inactive) | – | 15.8 µM (inactive) | 17.2 µM (inactive) | 16.3 µM (inactive)
15 | CC(C)[C@@H]1OC(=O)[C@@H](C)NC(=O)[C@@H]2CCCN2C1=O (cyclo([Hiv]-Pro-[dA])) | – | > 100 µM (inactive) | > 100 µM (inactive) | > 100 µM (inactive) | > 100 µM (inactive) | – | > 100 µM (inactive) | > 100 µM (inactive) | > 100 µM (inactive) | > 100 µM (inactive) | > 100 µM (inactive) | > 100 µM (inactive) | > 100 µM (inactive) | > 100 µM (inactive) | > 100 µM (inactive) | > 100 µM (inactive) | – | > 100 µM (inactive) | > 100 µM (inactive) | > 100 µM (inactive)

Source: ChEMBL document CHEMBL1201862, “PubChem BioAssay data set” (2004)
